The target of this assay is T1, HIV-1 protease (Human immunodeficiency virus type 1 group M subtype B, UniProt P04585).
T1 construct: Purified HIV-1 protease was obtained as described above; made in house; host or cells: E. coli K12 L507/pHP10D (NRRL B-18560)
As to the kind of experiment: biochemical. The note with it: for IC50: read-out: Fluorescence Assay IC50 (converted); for IC8: read-out: Fluorescence Assay IC8. It counts as biochemical. Here is the method: C. Preparation of Protease Fraction
A culture of E. coli K12 L507/pHP10D was grown to mid-log phase at 32° C. in LB media containing 12.5 μg/ml tetracycline. The cultivation temperature was quickly elevated to 40° C. to induce gene expression, and the cells were allowed to grow for 2.5 hours at this temperature before the culture was quickly chilled on ice. The cells were centrifuged and the cell pellet was resuspended in 20 mL 50 mmol MES buffer (pH 6.0) containing 1 mmol EDTA, 1 mmol DTT, 1 mmol PMSF and 10% glycerol ("Buffer A"). Cells were lysed by sonication using a Fischer Model 300 Dismembrator and a microtip probe. Following centrifugation at 27,000×g, the supernatant was diluted to a total volume of 60 mL with Buffer A and loaded onto a 2.0×19 cm QAE-Sepharose column (1 mL/min, 4° C.), that had been equilibrated in Buffer A. The column was washed isocratically for 180 min and then eluted with a gradient eluent of 0-1.0M sodium chloride in Buffer A over 120 min. Enzymatic activity was measured by HPLC using the synthetic peptide SQNYPIV as described in Margolin et al., Biochem. Biophys. Res. Commun., 167, 554-560 (1990); the production of the p1 peptide (SQNY) was measured.
The active fractions were combined, made 1.2M in ammonium sulfate, and applied to a 2.0×18 cm hexyl agarose column that had been equilibrated in Buffer A containing 1.2M ammonium sulfate. The sample was loaded at a flow rate of 1 mL/min at 4° C., washed with the equilibration buffer for 240 min (1 mL/min) and then eluted using a reverse linear gradient of 1.2-0M ammonium sulfate in Buffer A for 120 min at the same flow rate. The column was then washed isocratically in Buffer A for 120 min.
The active fractions were combined, concentrated to 10 mL using an Amicon stirred cell with a YM-10 membrane and then applied to a MonoS cation exchange column (1.0×10 cm) that had been equilibrated in Buffer A. The sample was loaded at a flow rate of 1 mL/min at 25° C. After washing isocratically for 30 min, the protease was eluted using a linear gradient of 0-0.45M sodium chloride in Buffer A over 40 min. The column was washed isocratically in Buffer A containing 0.45M sodium chloride for 30 min.
The active fractions were combined and concentrated to 200 μL using an Amicon stirred cell and a YM-10 membrane and then the protease was applied to a Superose 6 size exclusion column equilibrated in Buffer A containing 0.1M sodium chloride.
The purified peptide was labeled with a fluorescent marker at the C-terminal end for use in the Pandex assay. N^α -Biotin-[…]OH SEQ ID NO:3. (1.206 g, 0.936 mmol) was dissolved in 100 mL of 0.1M sodium borate, pH 9.5. Then, a solution of 3 g (7.7 mmol) of fluorescein isothiocyanate in 15 mL dimethyl sulfoxide was added to the reaction mixture in 10 equal portions over two hours. The resulting mixture was allowed to react for one hour after the final addition. The solution was adjusted to pH 3 using 5N hydrochloric acid, resulting in the formation of a precipitate which was removed by centrifugation.
E. Fluorescence HIV-1 Protease Inhibitor Assay
The following buffers and solutions are used in the Fluorescence HIV-1 Protease Inhibitor Assay:
MES-ALB Buffer: 0.05M 4-morpholineethane
Avidin Coated 0.1% solution of Fluoricon
Beads Solution: Avidin Assay Particles
(Avidin conjugated to solid
polystyrene beads, 0.6-0.8
microns in diameter in TBSA
27 IU/mL of purified HIV-1
protease in MES-ALB buffer
(1 IU equals the amount of
enzyme required to hydrolyze
1 μmole of substrate per
To each well of a round bottom, 96-well plate is added 20 μL of the Enzyme Solution followed by 10 μL of the compound to be evaluated in a 20% aqueous dimethylsulfoxide solution. Purified HIV-1 protease was obtained as described above.

In brackets after ≈: the same amount, converted by molar mass.

The text below walks through data of US5554653A, “Inhibitors of HIV protease useful for the treatment of AIDS” (Eli Lilly and Company, priority 1992, dated 1996).

For `CC(=O)N[C@H](CS(=O)(=O)c1ccc2ccccc2c1)C(=O)N[C@@H](Cc1ccccc1)[C@H](O)Cc1ccccc1C(=O)NC(C)(C)C` [Example 16B, [2R-(2R*,3S*,6S*)]-N-t-Butyl-2-[2-hydroxy-3-phenylmethyl-4-aza-5-oxo-6-N(ethanoyl)amino-7-naphth-2-ylsulfonyl]heptyl benzamide], the half-inhibitory concentration (IC50) (in general, the point on the concentration scale where inhibition reaches its midpoint) is 0.186 nM.

Regarding `CC(C)(C)NC(=O)c1ccccc1C[C@@H](O)[C@H](Cc1ccccc1)NC(=O)[C@@H](C[S+]([O-])c1ccc(F)cc1)NS(C)(=O)=O` (stereo partly drawn) [Example 37D, [2R-(2R*,3S*,6S*)]-N-t-Butyl-2-[2-hydroxy-3-phenylmethyl-4-aza-5-oxo-6-N(methylsulfonyl)amino-7-(p-fluorophenylsulfinyl)]heptyl benzamide], the IC50 was 0.158 nM. Still for that read-out and setting: the result for `CC(C)(C)NC(=O)c1ccccc1C[C@@H](O)[C@H](Cc1ccccc1)NC(=O)[C@@H](CSc1ccccc1)NS(C)(=O)=O` [Example 22C, [2R-(2R*,3S*,6S*)]-N-t-Butyl-2-[2-hydroxy-3-phenylmethyl-4-aza-5-oxo-6-N(methylsulfonyl)amino-7-phenylthio]heptyl benzamide] reads 18.9 nM.

Take `CC(C)(C)NC(=O)c1ccccc1C[C@@H](O)[C@H](Cc1ccccc1)NC(=O)[C@H](Cc1ccccc1)NC=O` [Example 40]: the IC8 worked out at 1 µg/mL.

In the case of `CC(C)(C)NC(=O)c1ccccc1C[C@@H](O)[C@H](Cc1ccccc1)NC(=O)[C@@H](CSc1ccc2ccccc2n1)NS(C)(=O)=O` [Example 23C, [2R-(2R*,3S*,6S*)]-N-t-Butyl-2-[2-hydroxy-3-phenylmethyl-4-aza-5-oxo-6-N(methylsulfonyl)amino-7-quinolin-2-ylthio]heptyl benzamide], the IC50 is 25.9 nM.

With `CC(C)(C)NC(=O)c1ccccc1C[C@@H](O)[C@H](Cc1ccccc1)NC(=O)[C@@H](C[S+]([O-])c1ccc2ccccc2n1)NS(C)(=O)=O` (stereo partly drawn) [Example 23E, [2R-(2R*,3S*,6S*)]-N-t-Butyl-2-[2-hydroxy-3-phenylmethyl-4-aza-5-oxo-6-N(methylsulfonyl)amino-7-quinolin-2-ylsulfinyl]heptyl benzamide], the IC50 was 4.06 nM.

As for `CC(=O)N[C@H](Cc1ccccc1)C(=O)N[C@@H](Cc1ccccc1)[C@H](O)Cc1ccccc1C(=O)NC(C)(C)C` [Example 26, [2R-(2R*,3S*,6R*)]-N-t-Butyl-2-[2-hydroxy-3-phenylmethyl-4-aza-5-oxo-6-N-(ethanoyl)amino-7-phenyl]heptyl benzamide], the IC45 (read-out: Fluorescence Assay IC45) was found to be 1 µg/mL (≈ 1.89 µM). As to `CC(=O)N[C@H](Cc1c[nH]c2ccccc12)C(=O)N[C@@H](Cc1ccccc1)[C@H](O)Cc1ccccc1C(=O)NC(C)(C)C` [Example 25, [2R-(2R*,3S*,6R*)]-N-t-Butyl-2-[2-hydroxy-3-phenylmethyl-4-aza-5-oxo-6-N-(ethanoyl)amino-7-indol-3-yl]heptyl benzamide], the 50% inhibitory concentration (IC50) was more than 1760 nM. For `CC(=O)N[C@H](CSCc1ccccc1)C(=O)N[C@@H](Cc1ccccc1)[C@H](O)Cc1ccccc1C(=O)NC(C)(C)C` [Example 18A, [2R-(2R*, 3S*, 6S*)]-N-t-Butyl-2-[2-hydroxy-3-phenylmethyl-4-aza-5-oxo-6-N (ethanoyl)amino-7-benzylthio]heptyl benzamide], the IC50 was 12.9 nM. On to `CC(C)(C)NC(=O)c1ccccc1C[C@@H](O)[C@H](Cc1ccccc1)NC(=O)[C@H](CC(N)=O)NS(=O)(=O)CCc1cccc2ccccc12` [Example 35, [2R-(2R*,3S*,6S*)]-N-t-Butyl-2-[2-hydroxy-3-phenylmethyl-4-aza-5-oxo-6-N (naphth-1-ylethylsulfonyl)amino-7-carbamoyl]heptyl benzamide], for which the IC50 was 1.04 nM. For `CC(C)(C)NC(=O)c1ccccc1C[C@@H](O)[C@H](Cc1ccccc1)NC(=O)[C@H](CC(N)=O)NS(=O)(=O)c1cccc2cccnc12` [Example 30, [2R-(2R*,3S*,6S*)]-N-t-Butyl-2-[2-hydroxy-3-phenylmethyl-4-aza-5-oxo-6-N(quinolin-8-ylsulfonyl)amino-7-carbamoyl]heptyl benzamide], the IC50 is 18.6 nM. The same measure, in the same setting: the result for `Cn1nnnc1SC[C@@H](NS(C)(=O)=O)C(=O)N[C@@H](Cc1ccccc1)[C@H](O)Cc1ccccc1C(=O)NC(C)(C)C` [Example 39C, [2R-(2R*,3S*,6S*)]-N-t-Butyl-2-[2-hydroxy-3-phenylmethyl-4-aza-5-oxo-6-N(methylsulfonyl)amino-7-N-(methyl)tetrazolylthio)]heptyl benzamide] reads 14.6 nM; that for `CC(C)(C)NC(=O)c1ccccc1C[C@@H](O)[C@H](Cc1ccccc1)NC(=O)[C@@H](CS(=O)(=O)c1ccccc1)NS(C)(=O)=O` [Example 22D, [2R-(2R*,3S*,6S*)]-N-t-Butyl-2-[2-hydroxy-3-phenylmethyl-4-aza-5-oxo-6-N(methylsulfonyl)amino-7-phenylsulfonyl]heptyl benzamide], 2.54 nM.

For `CC(C)(C)NC(=O)c1ccccc1C[C@@H](O)[C@H](Cc1ccccc1)NC(=O)[C@@H](C[S+]([O-])c1ccccc1)NS(C)(=O)=O` (stereo partly drawn) [Example 22E, [2R-(2R*,3S*,6S*)]-N-t-Butyl-2-[2-hydroxy-3-phenylmethyl-4-aza-5-oxo-6-N(methylsulfonyl)amino-7-phenylsulfinyl]heptyl benzamide], the concentration for half-maximal inhibition (IC50) is 0.978 nM. Turning to `CC(C)(C)NC(=O)c1ccccc1C[C@@H](O)[C@H](Cc1ccccc1)NC(=O)[C@@H](CC(=O)OCc1ccccc1)NS(C)(=O)=O` [Example 8A, [2R-(2R*,3S*, 6R*)]-N-t-butyl-2-[2-hydroxy-3-phenylmethyl-4-aza-5-oxo-6-N(methylsulfonyl)amino-7-benzyloxycarbonyl]heptyl benzamide], the IC50 is 3.69 nM. On to `CC(C)(C)NC(=O)c1ccccc1C[C@@H](O)[C@H](Cc1ccccc1)NC(=O)[C@H](N)COCc1ccccc1` [Example 13B, [2R-(2R*,3S*,6R*)]-N-t-Butyl-2-[2-hydroxy-3-phenylmethyl-4-aza-5-oxo-6-amino-7-benzyloxy]heptyl benzamide], for which the IC5 (read-out: Fluorescence Assay IC5) is 1 µg/mL.

Take `CC(C)(C)NC(=O)c1ccccc1C[C@@H](O)[C@H](Cc1ccccc1)NC(=O)[C@@H](C[S+]([O-])Cc1ccccc1)NS(C)(=O)=O` (stereo partly drawn) [Example 19D, [2R-(2R*,3S*,6S*)]-N-t-Butyl-2-[2-hydroxy-3-phenylmethyl-4-aza-5-oxo-6-N(methylsulfonyl)amine-7-benzylsulfinyl]heptyl benzamide]: the IC50 is 2.23 nM. Take `CC(=O)N[C@@H](CSc1ccccc1)C(=O)N[C@@H](Cc1ccccc1)[C@H](O)Cc1ccccc1C(=O)NC(C)(C)C` [Example 20B, [2R-(2R*,3S*,6R*)]-N-t-Butyl-2-[2-hydroxy-3-phenylmethyl-4-aza-5-oxo-6-N(ethanoyl)amino-7-phenylthio]heptyl benzamide]: the IC8 came to 1 µg/mL. As to “[2R-(2R*,3S*,6S*)]-N-t-Butyl-2-[2-hydroxy-3-phenylmethyl-4-aza-5-oxo-6-N(trifluoromethylcarbonyl)amino-7-naphth-2-ylthio]heptyl benzamide [Example 42]”, the “Fluorescence Assay IC50” value is reported as 0.74 ng/mL.

In the case of `CC(C)(C)NC(=O)c1ccccc1C[C@@H](O)[C@H](Cc1ccccc1)NC(=O)[C@@H](CC(=O)NCc1ccccc1)NS(C)(=O)=O` [Example 10, [2R-(2R*, 3S*, 6R*)]-N-t-butyl-2-[2-hydroxy-3-phenylmethyl-4-aza-5-oxo-6-N(methylsulfonyl)amino-8-oxo-8-N(benzyl)amino]octyl benzamide], the IC50 was 4.34 nM.
